Laboratory results from the CheMixHub viscosity set.

Assay: xn = mol fraction of the nth substance listed

COC(C)=O + OCCO
viscosity [mPa·s], 101.33 kPa
Details | x2 = 0.1014 | x2 = 0.1953 | x2 = 0.2981 | x2 = 0.3974 | x2 = 0.5029 | x2 = 0.5992 | x2 = 0.6997 | x2 = 0.799 | x2 = 0.9639
298.15 K | 0.543 | 0.645 | 0.829 | – | 1.85 | 2.329 | 3.499 | 5.578 | 9.086
303.15 K | 0.507 | 0.599 | 0.756 | 1.008 | 1.633 | 2.026 | 3.025 | 4.658 | 7.673
308.15 K | 0.473 | 0.561 | 0.701 | 0.921 | 1.439 | 1.781 | 2.643 | 3.989 | 6.317

COc1ccccc1N + OCCc1ccccc1
viscosity [mPa·s], 100 kPa
Details | x1 = 0.0957 | x1 = 0.1852 | x1 = 0.2904 | x1 = 0.3921 | x1 = 0.4911 | x1 = 0.6027 | x1 = 0.7023 | x1 = 0.8005 | x1 = 0.8904
303.15 K | 8.66 | 8.29 | 7.87 | 7.45 | 7.04 | 6.58 | 6.17 | 5.76 | 5.38
308.15 K | 6.95 | 6.71 | 6.43 | 6.16 | 5.9 | 5.6 | 5.33 | 5.06 | 4.82
313.15 K | 5.91 | 5.75 | 5.55 | 5.36 | 5.18 | 4.97 | 4.77 | 4.58 | 4.41
318.15 K | 4.89 | 4.8 | 4.69 | 4.58 | 4.47 | 4.35 | 4.23 | 4.12 | 4.02

OC[C@H](O)C(O)[C@@H](O)CO + OC[C@@H](O)[C@@H](O)CO
101 kPa, x1 = 0.36
Details | viscosity [mPa·s]
293.2 K | 1329000
298.2 K | 611700
303.2 K | 294200
308.1 K | 154700
313.2 K | 79520
318.2 K | 42740
323 K | 23480

OC[C@H](O)C(O)[C@@H](O)CO + OC[C@@H](O)[C@H](O)[C@@H](O)CO
Details | viscosity [mPa·s]
313 K, 101 kPa, x2 = 0.56 | 42740

c1ccc2ncccc2c1 + Oc1ccccc1
Details | viscosity [mPa·s]
293.25 K, 101 kPa, x2 = 0.101 | 4.595
293.25 K, 101 kPa, x2 = 0.1895 | 5.725
293.25 K, 101 kPa, x2 = 0.2876 | 7.85
293.25 K, 101 kPa, x2 = 0.3677 | 10.58
293.25 K, 101 kPa, x2 = 0.4518 | 15.03
293.25 K, 101 kPa, x2 = 0.5297 | 20.31
293.25 K, 101 kPa, x2 = 0.6094 | 24.52
293.25 K, 101 kPa, x2 = 0.6758 | 25.29
293.25 K, 101 kPa, x2 = 0.7465 | 23.27
293.25 K, 101 kPa, x2 = 0.8203 | 19.41
293.25 K, 101 kPa, x2 = 0.8731 | 16.6
293.25 K, 101 kPa, x2 = 0.9409 | 13.37
298 K, 101.3 kPa, x1 = 0.1054 | 12.7
298 K, 101.3 kPa, x1 = 0.1999 | 17.29
298 K, 101.3 kPa, x1 = 0.3001 | 20.99
298 K, 101.3 kPa, x1 = 0.4004 | 19.77
298 K, 101.3 kPa, x1 = 0.4996 | 14.31
298 K, 101.3 kPa, x1 = 0.5998 | 10.23
298 K, 101.3 kPa, x1 = 0.6997 | 7.295
298 K, 101.3 kPa, x1 = 0.7997 | 5.58
298 K, 101.3 kPa, x1 = 0.9023 | 4.054
303 K, 101.3 kPa, x1 = 0.1054 | 10.2
303 K, 101.3 kPa, x1 = 0.1999 | 13.09
303 K, 101.3 kPa, x1 = 0.3001 | 15.72
303 K, 101.3 kPa, x1 = 0.4004 | 14.98
303 K, 101.3 kPa, x1 = 0.4996 | 11.03
303 K, 101.3 kPa, x1 = 0.5998 | 8.24
303 K, 101.3 kPa, x1 = 0.6997 | 6.11
303 K, 101.3 kPa, x1 = 0.7997 | 4.797
303 K, 101.3 kPa, x1 = 0.9023 | 3.537
303.05 K, 101 kPa, x2 = 0.104 | 3.645
303.05 K, 101 kPa, x2 = 0.194 | 4.495
303.05 K, 101 kPa, x2 = 0.2786 | 5.605
303.05 K, 101 kPa, x2 = 0.3683 | 7.425
303.05 K, 101 kPa, x2 = 0.4478 | 9.65
303.05 K, 101 kPa, x2 = 0.5251 | 12.21
303.05 K, 101 kPa, x2 = 0.6009 | 14.36
303.05 K, 101 kPa, x2 = 0.672 | 14.8
303.05 K, 101 kPa, x2 = 0.744 | 13.44
303.05 K, 101 kPa, x2 = 0.8109 | 11.77
303.05 K, 101 kPa, x2 = 0.8741 | 10.1
303.05 K, 101 kPa, x2 = 0.9388 | 8.44
308 K, 101.3 kPa, x1 = 0.1054 | 8.195
308 K, 101.3 kPa, x1 = 0.1999 | 10.47
308 K, 101.3 kPa, x1 = 0.3001 | 12.4
308 K, 101.3 kPa, x1 = 0.4004 | 11.87
308 K, 101.3 kPa, x1 = 0.4996 | 8.92
308 K, 101.3 kPa, x1 = 0.5998 | 6.902
308 K, 101.3 kPa, x1 = 0.6997 | 5.266
308 K, 101.3 kPa, x1 = 0.7997 | 4.143
308 K, 101.3 kPa, x1 = 0.9023 | 3.095
313 K, 101.3 kPa, x1 = 0.1054 | 6.728
313 K, 101.3 kPa, x1 = 0.1999 | 8.655
313 K, 101.3 kPa, x1 = 0.3001 | 10.08
313 K, 101.3 kPa, x1 = 0.4004 | 9.694
313 K, 101.3 kPa, x1 = 0.4996 | 7.31
313 K, 101.3 kPa, x1 = 0.5998 | 5.796
313 K, 101.3 kPa, x1 = 0.6997 | 4.553
313 K, 101.3 kPa, x1 = 0.7997 | 3.608
313 K, 101.3 kPa, x1 = 0.9023 | 2.718
313.15 K, 101 kPa, x2 = 0.104 | 2.885
313.15 K, 101 kPa, x2 = 0.194 | 3.455
313.15 K, 101 kPa, x2 = 0.2786 | 4.195
313.15 K, 101 kPa, x2 = 0.3683 | 5.335
313.15 K, 101 kPa, x2 = 0.4478 | 6.6
313.15 K, 101 kPa, x2 = 0.5251 | 7.95
313.15 K, 101 kPa, x2 = 0.6009 | 8.87
313.15 K, 101 kPa, x2 = 0.672 | 9.04
313.15 K, 101 kPa, x2 = 0.744 | 8.39
313.15 K, 101 kPa, x2 = 0.8109 | 7.48
313.15 K, 101 kPa, x2 = 0.8741 | 6.56
313.15 K, 101 kPa, x2 = 0.9388 | 5.525
318 K, 101.3 kPa, x1 = 0.1054 | 5.655
318 K, 101.3 kPa, x1 = 0.1999 | 7.159
318 K, 101.3 kPa, x1 = 0.3001 | 8.328
318 K, 101.3 kPa, x1 = 0.4004 | 8.054
318 K, 101.3 kPa, x1 = 0.4996 | 5.886
318 K, 101.3 kPa, x1 = 0.5998 | 4.902
318 K, 101.3 kPa, x1 = 0.6997 | 3.996
318 K, 101.3 kPa, x1 = 0.7997 | 3.172
318 K, 101.3 kPa, x1 = 0.9023 | 2.416
